The subject of one test is N-mSMase ε. Kind of test: N-mSMase activity assay: influence of cations, reducing agents and surfactants on enzyme activity. The test is classed as biochemical, bovine. Conditions: for influence of reducing agents on N-mSMase ε activity: 0.5-10 mM, relative to control without reducing agent; for influence of agents similar to glutathione on N-mSMase ε activity: 1, 3, 5 or 10 mM; for inhibition of activity at 10 mM: glutathione concentration of 10 mM. How it is done: (§1) After being dried with a nitrogen stream, [N-methyl-^14 C]sphingomyelin (choline residue labeled with ^14C) was suspended in ethanol. 10 µl of a sample was mixed with 100 µl of a reaction solution (10 mM MgSO4, 50 µM [N-methyl-^14 C]sphingomyelin (c.a. 60,000 cpm), 2 mM sodium deoxycholate, 100 mM Tris-HCl (pH 7.0)) and incubated at 37 °C for 30 min. Addition of 320 µl of a mixture of chloroform/methanol (1:1 volume ratio) and 30 µl of 2N hydrochloride stopped the reaction. After vortexing and centrifuging the resulting mixture at 10,000xg, 200 µl of the aqueous layer was mixed with 2.5 ml of a scintillation cocktail, such as that manufactured by Packard Instrument Co., U.S.A., identified as "Insta gel-XF", followed by measuring the radioactivity with the aid of a Packard Tricarb liquid β-scintillation counter.
(§2) Separately, the same Lineweaver-Burk analysis was carried out, but in the presence of 0.4, 1.0 and 2.0 mM sodium deoxycholate.
In order to examine the dependency of N-mSMase ε activity on Mg^2+, Fraction B obtained in Step 6 of Example 1 was desalted by being applied to a PD-10 column (Sephadex G-25, Pharmacia Biotechnology Co., Sweden). For use, the column was equilibrated twice with distilled water, in advance. The desalted protein fraction (corresponding to protein 10 ng) was measured for N-mSMase ε activity in the presence of 1, 5, 10 and 25 mM of MgCl2 in the manner described in Experimental Example 1.
An examination was made of the influence of other cations, such as Ca^2+, Fe^3+, Fe^2+, Zn^2+, Cu^2+ and […] on the activity of N-mSMase ε. To a solution containing the desalted protein fraction (corresponding to protein 10 ng) obtained in C and 5 mM MgCl2, CaCl2, FeCl3, FeCl2, ZnCl2 or CuCl2 was added to yield a final concentration of 0.01, 0.02, 0.05, 0.1, 0.25 or 0.5 mM, followed by the measurement of N-mSMase ε activity in accordance with the procedure of Experimental Example 1.
After the addition of 10 µl of [N-methyl-^14C]sphingomyelin, the N-mSMase activity was measured according to the procedure of Experimental Example 1. For comparison, a Tris-HCl buffer containing no reducing agents was used as a control. The N-mSMase ε activity influenced by the reducing agents was expressed as a percentage relative to the control.
After being treated with 1, 3, 5 or 10 mM of GSSG, cystein, cystein-glycine or γ-glutaric acid-cystein, the activity of N-mSMase ε was measured in the same manner.
Sodium deoxycholate and Triton X-100 were selected as surfactants to be tested. The protein fraction obtained in C (corresponding to 10 ng of protein) was measured for N-mSMase ε activity in reaction solutions containing 0.5, 1, 2 and 5 mM of sodium deoxycholate, respectively, in accordance with the procedure of Experimental Example 1. In the case of Triton X-100, it was prepared at concentrations of 0.05, 0.01, 0.5 and 0.1 %.

Test [1] concerns partially purified N-mSMase. Conditions: partially purified rat brain N-mSMase (Liu et al.); cited from earlier work.
The subject of test [2] is N-mSMase ε, membrane-associated, Mg^2+-dependent, neutral pH optimum sphingomyelinase (60 kDa) from bovine brain. In words: Lineweaver-Burk kinetic analysis (N-mSMase activity assay). The test is classed as biochemical. The protocol:
as §1
The N-mSMase ε prepared in Step 6 of Example 1 was subjected to Lineweaver-Burk analysis. In this regard, enzyme N-mSMase ε was used at amounts of 10 ng or less with the substrate sphingomyelin varying, in concentration, from 6.25 to 100 µM.
as §2

The mark [3] stands for this setting: cation chloride added at 0.01-0.5 mM in the presence of 5 mM MgCl2, read-out: IC50 (inhibition of enzyme activity, hydrolysis of sphingomyelin).

pIC50: −log10 of the molar value. “Also recorded” adds a separate entry of the source. Like-named read-outs stand apart in the source and are kept apart here.

Regarding `O[C@H](CS)[C@H](O)CS` (racemic) [DTT, dithiothreitol], the “influence of reducing agents on N-mSMase ε activity” value with N-mSMase ε is given as “not inhibited”; in the test with N-mSMase ε (listed as dithiothreitol), “neither dithiothreitol nor 2-mercaptoethanol has any influence”. In addition, the “effect on activity of partially purified N-mSMase” value in test [1] is “promoted”.
Regarding `OCCS` [2-mercaptoethanol], the “influence of reducing agents on N-mSMase ε activity” value with N-mSMase ε is recorded as “not inhibited; also recorded: neither dithiothreitol nor 2-mercaptoethanol has any influence”.
For `[Ca+2].[Cl-].[Cl-]` [Ca^2+, CaCl2], the “influence on the activity of N-mSMase ε” value with N-mSMase ε (concentration of 0.5 mM or less, 5 mM MgCl2) is “no influence”.
Broadly, the pIC50 is the negative decadic logarithm of the IC50, by convention in mol/L. `[Cl][Cu][Cl]` [Cu^2+, CuCl2]: at N-mSMase ε (setting [3]), the negative logarithm of the IC50 (pIC50) is 4.55.
For `[Cl-].[Cl-].[Mg+2]` [Mg^2+, MgCl2], the “dependency of N-mSMase ε activity on Mg^2+” value in the test with N-mSMase ε (1, 5, 10 and 25 mM MgCl2, desalted fraction) is “Mg^2+-concentration dependent”.
Regarding `[Cl-].[Cl-].[Zn+2]` [Zn^2+, ZnCl2], the pIC50 on N-mSMase ε (setting [3]) was 4.49.
Consider `N[C@@H](CS)C(=O)O` [cystein], for which the “influence of agents similar to glutathione on N-mSMase ε activity” value (shortened to “influence of agents similar”) in the test on N-mSMase ε is “inhibited; also recorded: reduction in the activity”.
With `N[C@@H](CCC(=O)N[C@@H](CS)C(=O)NCC(=O)O)C(=O)O` [glutathione], the negative-log IC50 (pIC50) on N-mSMase ε (glutathione 0.5-10 mM, preincubation 37 °C 10 min, read-out: IC50 (inhibition of sphingomyelinase activity)) was 2.10. Moreover, the “inhibition of activity at 10 mM” value is recorded as “completely inhibited” with N-mSMase ε and “fully inhibited” with N-mSMase ε (listed as Glutathione). Further, the “change of activity with concentration up to 3 mM” value in the test with N-mSMase ε (glutathione up to 3 mM) is “increases”.
Take `N[C@@H](CCC(=O)N[C@@H](CS)C(=O)O)C(=O)O` [γ-glutaric acid-cystein]: the “influence of agents similar” value with N-mSMase ε is given as “inhibited; also recorded: reduction in the activity”.
On to oxidized glutathione [GSSG], for which, in the test on N-mSMase ε, the “influence of agents similar” value was “inhibited; also recorded: reduction in the activity”.
In the case of phosphatidylserine, the “effect on activity of partially purified N-mSMase” value in test [1] is “promoted”.
sodium deoxycholate: the “effect on Km value of N-mSMase ε” value in the test on N-mSMase ε (Lineweaver-Burk analysis in the presence of 0.4, 1.0 and 2.0 mM sodium deoxycholate) is “could not change”.
As usually defined, the Km is the substrate concentration at which the rate is half of its maximum. In the case of sphingomyelin, the Michaelis constant (Km) in test [2] (substrate sphingomyelin 6.25 to 100 µM, enzyme 10 ng or less, absence of surfactants) turned out to be 47 µM. In addition, the “Km value in the presence of sodium deoxycholate” value in test [2] (substrate sphingomyelin, 0.4, 1.0 and 2.0 mM sodium deoxycholate) is listed as “could not change”.

(Values after patent EP1258527A1, “Membrane-associated shingomyelinase derived from bovine brain, isolation method therfor and anti-sphingomyelinase monocional antibody” (SK Corporation, priority 2001, dated 2002).)
